As usually defined, the IC50 is the concentration at which inhibition is half-maximal.

Here are results for 7 molecules from patent US8530701B2, “High purity 2-[4-(3- OR 2-fluorobenzyloxy)benzylamino]propanamides and methods of use thereof” (priority 2007, dated 2013).

Like-named read-outs stand apart in the source and are kept apart here.

Data set [1] has as its system human neuroblastoma cell line SH-SY-5Y. Briefly: Cytotoxicity assay in human neuroblastoma cell line SH-SY-5Y. The class given is cell-based. The protocol: (§1) At time zero, the cells were seeded at 1.10^4/cm^2 in 96 well plates in DMEM growth medium+10% heat inactivated FBS+2 mM 1-Glutamine+100 U/mL-100 μg/mL Penicillin/Streptomycin.
(§2) After 72 hours at subconfluent phase of growth, the medium was removed and cells were incubated for 24 hours at 37° C. in 180 μL of neurobasal medium+2 mM 1-Glutamine (Life Techonologies) with or without test compounds (20 μL, at least 5 concentrations in triplicate).
(§3) At the end of incubation, 20 μL of Alamar Blue dye (AlamarBlue™ Assay Kit, Promega) were directly added to the cell medium.
(§4) Four hours after, the cytotoxicity was assessed by measuring the fluorescence at 530 nm excitation and 595 nm emission using Tecan Spectrafluor plate reader.
(§5) Before and at the end of the treatment, the cultures were monitored microscopically by an Olympus IX70 inverted light microscope matched to an Image Analyzer (Image Pro Plus, 5.1) to evaluate the cellular morphology.
(§6) Results are expressed in Table 1 as concentration inducing 50% of mortality.

In data set [2] the target is T1, CYP1A2 (Homo sapiens, UniProt P05177).
T1 construct: purchased Gentest
T1 sequence (P05177 1-516): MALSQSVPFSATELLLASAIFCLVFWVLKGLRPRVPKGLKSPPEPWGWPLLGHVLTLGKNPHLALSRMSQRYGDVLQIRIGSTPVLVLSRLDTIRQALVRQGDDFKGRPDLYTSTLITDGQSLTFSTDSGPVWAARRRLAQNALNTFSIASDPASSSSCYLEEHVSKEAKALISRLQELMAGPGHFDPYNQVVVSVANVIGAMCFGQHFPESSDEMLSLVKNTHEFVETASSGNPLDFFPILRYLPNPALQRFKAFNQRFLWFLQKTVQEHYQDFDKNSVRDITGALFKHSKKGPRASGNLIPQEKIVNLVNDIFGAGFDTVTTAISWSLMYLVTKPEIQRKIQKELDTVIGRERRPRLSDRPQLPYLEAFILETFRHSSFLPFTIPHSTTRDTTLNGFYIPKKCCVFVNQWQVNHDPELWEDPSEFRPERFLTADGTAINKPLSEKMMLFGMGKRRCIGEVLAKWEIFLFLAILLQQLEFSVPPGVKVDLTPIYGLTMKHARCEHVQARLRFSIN
Briefly: in vitro. The class given is in vitro ADME. The method, then:
(§7) Inhibition of the five most important Cytochrome P450 isoforms (CYP1A2, CYP2C9, CYP2C19, CYP2D6 and CYP3A4), involved in drug metabolism, was measured using specific substrates that become fluorescent upon CYP metabolism (Gentest Kit assay).
(§8) Compounds were tested in a 96-well plate containing incubation/NADPH regenerating buffer. Specific human recombinant isoenzymes and substrates were added and incubated at 37° C. for 15 min for CYP1A2/CEC, 40 min for CYP2E1/MFC, 45 min for CYP2C9/MFC and 30 min for the others CYP450.
(§9) The specific substrates were the following: 3-cyano-7-ethoxycoumarin (CYP2C19 and CYP1A2), • 7-methoxy-4-trifluoromethylcoumarin (CYP2C9), • 3[2(N,N-diethyl-N-methylamino)ethyl]-7-methoxy-4-methylcoumarin (CYP2D6) • benzylphenylcoumarin (CYP3A4)

Data set [3] concerns the target T2, CYP2D6 (Homo sapiens, UniProt P10635).
T2 construct: purchased Gentest
Description: Cytochrome P450 assay (Gentest Kit), CYP2D6. The class given is in vitro ADME. The method, then: as §7, §8, §9

Data set [4] has as its target T3, CYP2C19 (Homo sapiens, UniProt P33261).
T3 construct: purchased Gentest
Briefly: Cytochrome P450 assay (Gentest Kit), CYP2C19. The class given is in vitro ADME. The protocol: as §7, §8, §9

The target of data set [5] is T4, CYP3A4 (Homo sapiens, UniProt P08684).
T4 construct: purchased Gentest
T4 sequence (P08684 whole entry): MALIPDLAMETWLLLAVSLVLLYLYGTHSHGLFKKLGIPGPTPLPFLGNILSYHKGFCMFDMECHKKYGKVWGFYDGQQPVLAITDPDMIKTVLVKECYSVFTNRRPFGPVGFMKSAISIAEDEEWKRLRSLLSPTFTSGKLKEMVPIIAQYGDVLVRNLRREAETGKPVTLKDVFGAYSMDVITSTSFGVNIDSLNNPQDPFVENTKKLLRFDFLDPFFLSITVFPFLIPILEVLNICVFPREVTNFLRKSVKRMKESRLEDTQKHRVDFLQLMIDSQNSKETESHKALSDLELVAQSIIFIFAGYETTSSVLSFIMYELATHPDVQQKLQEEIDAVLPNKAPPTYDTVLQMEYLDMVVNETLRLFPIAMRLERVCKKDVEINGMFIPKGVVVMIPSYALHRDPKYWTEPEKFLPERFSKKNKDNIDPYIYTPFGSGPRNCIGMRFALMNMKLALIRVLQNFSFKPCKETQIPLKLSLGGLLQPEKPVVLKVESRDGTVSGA
Briefly: Cytochrome P450 assay (Gentest Kit), CYP3A4. The class given is in vitro ADME. The method, then: as §7, §8, §9

The target in data set [6] is T5, recombinant HERG channel (Homo sapiens, UniProt Q12809).
T5 sequence (Q12809 whole entry): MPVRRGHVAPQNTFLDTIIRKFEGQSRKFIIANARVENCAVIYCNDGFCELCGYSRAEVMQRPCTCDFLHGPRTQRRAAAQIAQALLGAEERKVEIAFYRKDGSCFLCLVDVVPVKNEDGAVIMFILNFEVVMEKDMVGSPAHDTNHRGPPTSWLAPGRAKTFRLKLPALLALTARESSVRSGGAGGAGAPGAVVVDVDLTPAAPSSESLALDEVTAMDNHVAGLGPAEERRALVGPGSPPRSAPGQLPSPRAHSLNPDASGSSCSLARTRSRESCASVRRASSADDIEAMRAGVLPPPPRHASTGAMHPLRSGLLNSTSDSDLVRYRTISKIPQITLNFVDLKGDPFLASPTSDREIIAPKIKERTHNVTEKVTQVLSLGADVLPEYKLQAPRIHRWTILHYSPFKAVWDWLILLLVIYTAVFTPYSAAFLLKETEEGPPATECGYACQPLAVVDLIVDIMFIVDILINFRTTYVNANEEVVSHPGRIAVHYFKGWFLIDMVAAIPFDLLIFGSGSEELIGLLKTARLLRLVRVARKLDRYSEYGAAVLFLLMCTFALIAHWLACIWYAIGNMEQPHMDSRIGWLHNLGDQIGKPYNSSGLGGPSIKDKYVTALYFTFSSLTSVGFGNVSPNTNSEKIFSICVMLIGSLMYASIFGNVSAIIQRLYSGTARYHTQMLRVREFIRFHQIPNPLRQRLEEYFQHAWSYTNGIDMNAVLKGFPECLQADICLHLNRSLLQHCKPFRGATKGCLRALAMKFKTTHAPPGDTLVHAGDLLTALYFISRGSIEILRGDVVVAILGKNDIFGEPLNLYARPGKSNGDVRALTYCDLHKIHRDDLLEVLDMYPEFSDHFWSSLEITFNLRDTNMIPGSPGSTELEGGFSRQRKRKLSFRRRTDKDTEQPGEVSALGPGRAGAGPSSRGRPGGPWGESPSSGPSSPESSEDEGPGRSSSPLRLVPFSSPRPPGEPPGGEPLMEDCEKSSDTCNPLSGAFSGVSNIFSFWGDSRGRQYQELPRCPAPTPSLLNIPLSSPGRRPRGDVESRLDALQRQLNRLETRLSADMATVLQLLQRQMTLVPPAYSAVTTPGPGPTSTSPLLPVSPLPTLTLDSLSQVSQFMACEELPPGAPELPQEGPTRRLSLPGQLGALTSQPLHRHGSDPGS
Description: (§10) The inhibition of HERG current was tested in CHO cells stably expressing recombinant HERG channel.
(§11) To evaluate the effect of the test compounds on HERG currents, cells were clamped at −80 mV, depolarised to 0 mV for 5 seconds allowing activation of HERG current and repolarised to −50 mV during 5 seconds allowing HERG tail current to deactivate. This procedure was repeated at a frequency of 0.06 Hz. The current amplitude upon repolarisation (HERG tail current) was measured before and after exposure to the test compound.
(§12) Inhibition of current was calculated as the difference between the amplitude of HERG tail current amplitude measured at the end of external bath perfusion period and HERG tail current measured at the end of test compound perfusion period (when steady-state effect is reached) divided by control HERG tail current.
(§13) Drug concentration-inhibition curves were obtained by plotting tonic blocks versus drug concentrations. Dose-response curves were fitted to the tonic block data, according to the logistic equation: y=A2+(A1−A2)/[1+(x/IC50)^p].
For data set [7], the target named is T6, CYP2C9 (Homo sapiens, UniProt P11712).
T6 construct: purchased Gentest
T6 sequence (P11712 whole entry): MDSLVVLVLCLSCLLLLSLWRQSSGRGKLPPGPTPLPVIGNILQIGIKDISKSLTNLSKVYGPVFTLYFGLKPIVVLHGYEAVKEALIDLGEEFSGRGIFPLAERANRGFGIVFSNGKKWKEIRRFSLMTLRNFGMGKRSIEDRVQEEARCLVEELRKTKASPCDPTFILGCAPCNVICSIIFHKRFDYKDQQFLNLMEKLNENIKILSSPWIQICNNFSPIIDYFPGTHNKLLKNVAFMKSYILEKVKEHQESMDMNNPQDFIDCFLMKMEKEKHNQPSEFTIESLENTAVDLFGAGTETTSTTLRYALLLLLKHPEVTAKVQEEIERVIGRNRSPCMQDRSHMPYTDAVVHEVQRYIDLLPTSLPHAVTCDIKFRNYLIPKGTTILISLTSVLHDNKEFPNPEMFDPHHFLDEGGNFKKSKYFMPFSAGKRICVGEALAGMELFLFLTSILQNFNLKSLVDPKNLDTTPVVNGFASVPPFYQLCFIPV
Description: Cytochrome P450 assay (Gentest Kit), CYP2C9. The class given is in vitro ADME. The method, then: as §7, §8, §9

Data set [8] concerns Male CD1 mice. The class given is in vivo. The protocol: The maximal electroshock test (MES) is used commonly in the screening of anti-epileptic drugs in rodent models.
Animals and Apparatus: Male CD1 mice weighing 25 g were used. […] The stimulus was delivered intra-aurally through clip electrodes in mice (0.7 seconds of a 40 mA shock, with a pulse train of 80 Hz having a pulse duration of 0.4 ms). The acute effect of compounds administered intraperitoneally or orally 15-60 min before MES induction were examined and compared with a vehicle control group. Ten mice were studied per group. Complete suppression of the hindlimb tonic extensor component of seizures was taken as evidence of anticonvulsant activity.
The compounds of the invention were administered orally or intraperitoneally at the doses of 3-30 mg/kg.
The results are expressed in Tables 3 and 4 as % of protection.

The target of data set [9] is T5, recombinant HERG channel. Briefly: HERG current in transfected CHO cell lines.
Description: as §10, §11, §12, §13
The nature of data set [10]: Cytotoxicity assay in human neuroblastoma cell line SH-SY-5Y. The class given is cell-based. The note with it: human, SH-SY-5Y neuroblastoma cells; SH-SY-5Y, 24 hours incubation, Alamar Blue; concentration inducing 50% of mortality. The method, then: as §1, §2, §3, §4, §5, §6
On the technique in general: The colour change of resazurin is a common sign of viable cells or microbes.

Where [11] appears, read: human recombinant isoenzyme, fluorescent substrate, read-out: CYP2D6 IC50.
Where [12] appears, read: human recombinant isoenzyme, substrate 3-cyano-7-ethoxycoumarin, read-out: CYP2C19 IC50.
Setting [13] is: Table 1, human recombinant isoenzyme, substrate benzylphenylcoumarin, read-out: CYP3A4 IC50.
The mark [14] stands for this setting: human recombinant isoenzyme, substrate 7-methoxy-4-trifluoromethylcoumarin, read-out: CYP2C9 IC50.

T3 sequence (P33261 whole entry): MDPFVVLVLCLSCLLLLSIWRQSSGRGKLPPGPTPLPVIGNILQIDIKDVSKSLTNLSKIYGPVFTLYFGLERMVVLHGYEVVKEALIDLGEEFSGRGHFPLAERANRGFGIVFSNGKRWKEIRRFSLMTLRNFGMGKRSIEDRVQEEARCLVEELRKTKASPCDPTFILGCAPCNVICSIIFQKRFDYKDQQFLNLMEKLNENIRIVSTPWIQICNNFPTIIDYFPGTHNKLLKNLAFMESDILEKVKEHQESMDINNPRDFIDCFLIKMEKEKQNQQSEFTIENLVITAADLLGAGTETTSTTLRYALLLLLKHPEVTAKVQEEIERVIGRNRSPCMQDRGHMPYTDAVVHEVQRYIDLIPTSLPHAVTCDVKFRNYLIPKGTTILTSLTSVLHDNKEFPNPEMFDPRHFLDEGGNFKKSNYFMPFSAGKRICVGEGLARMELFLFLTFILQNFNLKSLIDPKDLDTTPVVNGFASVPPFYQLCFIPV
T2 sequence (P10635 whole entry): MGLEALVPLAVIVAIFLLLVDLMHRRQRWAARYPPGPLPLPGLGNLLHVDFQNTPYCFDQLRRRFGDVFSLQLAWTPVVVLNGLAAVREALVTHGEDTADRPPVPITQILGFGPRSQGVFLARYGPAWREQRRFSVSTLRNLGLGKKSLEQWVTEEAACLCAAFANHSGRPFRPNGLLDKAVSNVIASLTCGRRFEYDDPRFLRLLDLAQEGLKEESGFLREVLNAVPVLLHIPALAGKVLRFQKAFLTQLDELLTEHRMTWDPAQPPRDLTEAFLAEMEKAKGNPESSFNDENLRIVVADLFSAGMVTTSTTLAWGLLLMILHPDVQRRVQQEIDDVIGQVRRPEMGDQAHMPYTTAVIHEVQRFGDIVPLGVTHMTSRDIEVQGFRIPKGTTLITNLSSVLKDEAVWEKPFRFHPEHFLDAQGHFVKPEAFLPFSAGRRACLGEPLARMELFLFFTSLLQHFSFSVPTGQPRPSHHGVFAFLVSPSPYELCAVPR

On to `C[C@@H](NCc1ccc(OCc2cccc(F)c2)c(Cc2cccc(F)c2)c1)C(N)=O` (racemic) [Impurity (IIc, II′c), (R,S)-2-[3-(3-fluorobenzyl)-4-(3-fluorobenzyloxy)-benzylamino]propanamide methanesulfonate], for which the half-inhibitory concentration (IC50) in data set [1] is 11.8 µM; in data set [2], 28 µM; in data set [3], 0.31 µM; in data set [4], 0.17 µM; in data set [5], 0.06 µM; in data set [6], < 1 µM. In data set [7], this molecule yielded an IC50 of 5.57 µM.

On to `C[C@@H](NCc1ccc(OCc2ccccc2F)c(Cc2ccccc2F)c1)C(N)=O` (racemic) [Impurity (IId, II′d), (R,S)-2-[3-(2-fluorobenzyl)-4-(2-fluorobenzyloxy)-benzylamino]propanamide methanesulfonate], for which the IC50 in data set [1] was 14.3 µM; in data set [2], 39.4 µM; in data set [3], 1.19 µM; in data set [4] it was 0.03 µM; in [5] it was 0.06 µM; in data set [6] it was < 1 µM. For the same molecule, the IC50 in [7] is 4.96 µM.

Consider `CS(=O)(=O)O.C[C@H](NCc1ccc(OCc2cccc(F)c2)c(Cc2cccc(F)c2)c1)C(N)=O` [Impurity (IIc), (S)-2-[3-(3-fluorobenzyl)-4-(3-fluorobenzyloxy)-benzylamino]propanamide methanesulfonate], for which the MES dead/live in data set [8] (mice, 3 mg/kg ip) is given as 5/10; in data set [8] (mice, 10 mg/kg ip) it was 4/10; in data set [8] (mice, 30 mg/kg ip), 4/10. In data set [8] (mice, ip, from 3 mg/kg), the “pharmacological activity, i.e. protection from convulsions, in MES test (in words)” value was “without any pharmacological activity”. For the same molecule, in data set [8] (starting from 3 mg/kg ip), the “mortality in the mice MES test (in words)” value was “increases”.

In the case of `CS(=O)(=O)O.C[C@H](NCc1ccc(OCc2ccccc2F)c(Cc2ccccc2F)c1)C(N)=O` [Impurity (IId), (S)-2-[3-(2-fluorobenzyl)-4-(2-fluorobenzyloxy)-benzylamino]propanamide methanesulfonate], the “MES dead/live” value in data set [8] (mice, 10 mg/kg p.o.) is listed as 0/10; in [8] (mice, 20 mg/kg p.o.) it was 0/10. Besides, the “protection of mice from convulsions in MES test (in words)” value in [8] (p.o. at 10 and 20 mg/kg, compared with same doses of ralfinamide methanesulfonate) was “doesn't protect mice from convulsions”.

As to `C[C@@H](NCc1ccc(OCc2cccc(F)c2)c(Cc2cccc(F)c2)c1)C(N)=O` [Impurity (II′c), (R)-2-[3-(3-fluorobenzyl)-4-(3-fluorobenzyloxy)-benzylamino]propanamide methanesulfonate], the IC50 was < 1 µM in data set [9]; 29.2 µM in [2] (human recombinant isoenzyme, substrate 3-cyano-7-ethoxycoumarin, read-out: CYP1A2 IC50); 0.15 µM in [3] (setting [11]); 0.15 µM in data set [4] (setting [12]); 0.09 µM in [5] (setting [13]); 4.94 µM in [7] (setting [14]). Also, half-maximal inhibition in data set [10] (IC50 at 24 h) was put at 8.81 µM.

For `C[C@@H](NCc1ccc(OCc2ccccc2F)c(Cc2ccccc2F)c1)C(N)=O` [Impurity (II′d), (R)-2-[3-(2-fluorobenzyl)-4-(2-fluorobenzyloxy)-benzylamino]propanamide methanesulfonate], the IC50 in data set [9] was < 1 µM; in data set [3] (setting [11]), 0.62 µM; in data set [4] (setting [12]) it was 0.03 µM; in [5] (setting [13]) it was 0.07 µM; in data set [7] (setting [14]), 4.34 µM. The molecule further displayed a half-inhibitory concentration (IC50) at 24 h in [10] of 11.5 µM. Further, the IC50 at 15 min in [2] (recombinant human CYP1A2, probe 3-cyano-7-ethoxycoumarin, human recombinant isoenzyme, substrate 3-cyano-7-ethoxycoumarin) was > 40 µM.

Take `CS(=O)(=O)O.C[C@H](NCc1ccc(OCc2cccc(F)c2)cc1)C(N)=O` [Safinamide methanesulfonate (Ic), (S)-2-[4-(3-fluorobenzyloxy)benzylamino]propanamide methanesulfonate, reference compound]: the MES % protection worked out at 50% in data set [8] (mice, 3 mg/kg ip); 100% in [8] (mice, 10 mg/kg ip); 100% in data set [8] (mice, 30 mg/kg ip).
